# Assay results from US7244738B2, “Arylamine-substituted quinazolinone compounds useful as alpha 1A/B adrenergic receptor antagonists” (Roche Palo Alto LLC, priority 2003, dated 2007).
row,Compound,melting point
1,"COc1cc2[nH]c(N(C)Cc3cccc(/N=C(\C)N(C)C)c3)nc(=O)c2cc1OC [Example 70, N′-(3-{[(6,7-Dimethoxy-4-oxo-1,4-dihydro-quinazolin-2-yl)-methyl-amino]-methyl}-phenyl)-N,N-dimethyl-acetamidine]",221.8 to 223 °C
2,"CCN(C)Cc1cccc(CN(C)c2nc(=O)c3c(C)c(OC)c(OC)cc3[nH]2)c1 [Example 71, 2-({3-[(Ethyl-methyl-amino)-methyl]-benzyl}-methyl-amino)-6,7-dimethoxy-5-methyl-1H-quinazolin-4-one]",146.7 to 150.8 °C
3,"COc1cc2[nH]c(NCc3cccc(/N=C(\C)N(C)C)c3)nc(=O)c2c(C)c1OC [Example 72, N′-{3-[(6,7-Dimethoxy-5-methyl-4-oxo-1,4-dihydro-quinazolin-2-ylamino)-methyl]-phenyl}-N,N-dimethyl-acetamide]",173 to 175 °C
4,"COc1ccnc(N2CCN(c3nc(=O)c4c(OC)c(OC)c(OC)cc4[nH]3)CC2)c1 [Example 73, 5,6,7-Trimethoxy-2-[4-(4-methoxy-pyridin-2-yl)-piperazin-1-yl]-1H-quinazolin-4-one]",229 to 231 °C
5,"COc1cc2c(=O)nc(N(C)Cc3cccc(/N=C(\C)N(C)C)c3)[nH]c2cc1Cl [Example 74, N′-(3-{[(7-Chloro-6-methoxy-4-oxo-1,4-dihydro-quinazolin-2-yl)-methyl-amino]-methyl}-phenyl)-N,N-dimethyl-acetamide]",185.4 to 191.9 °C
6,"COc1cc2[nH]c(N(C)Cc3cccc(N4CCC(C)C4=O)c3)nc(=O)c2c(OC)c1OC (stereo not drawn) [Example 75, 5,6,7-Trimethoxy-2-{methyl-[3-(3-methyl-2-oxo-pyrrolidin-1-yl)-benzyl]-amino}-1H-quinazolin-4-one]",156.4 to 162 °C
7,"COc1cc2[nH]c(N(C)Cc3cccc(N4CCNC4=O)c3)nc(=O)c2c(C)c1OC [Example 76, 6,7-Dimethoxy-5-methyl-2-{methyl-[3-(2-oxo-imidazolidin-1-yl)-benzyl]-amino}-1H-quinazolin-4-one]",265 to 266 °C
8,COCCNCc1cccc(CN(C)c2nc(=O)c3c(C)c(OC)c(OC)cc3[nH]2)c1 [Example 77],150 to 152.1 °C
9,"COc1cc2[nH]c(N(C)Cc3cccc(NC4=NCCC4)c3)nc(=O)c2cc1OC [Example 87, 2-{[3-(4,5-Dihydro-3H-pyrrol-2-ylamino)-benzyl]-methyl-amino}-6,7-dimethoxy-1H-quinazolin-4-one]",211 to 214 °C
10,"COc1cc2[nH]c(N(C)Cc3cccc(NC4=NCCN4)c3)nc(=O)c2cc1OC [Example 89, 2-{[3-(4,5-Dihydro-1H-imidazol-2-ylamino)-benzyl]-methyl-amino}-6,7-dimethoxy-1H-quinazolin-4-one]",163.8 to 176.9 °C
11,"COc1cc2[nH]c(N(C)Cc3cccc(N4C=NC(C)(C)C4)c3)nc(=O)c2cc1OC [Example 90, 2-{[3-(4,4-Dimethyl-4,5-dihydro-imidazol-1-yl)-benzyl]-methyl-amino}-6,7-dimethoxy-1H-quinazolin-4-one]",240 to 242 °C
12,"COc1cc2[nH]c(N(C)CCc3cccc(/N=C(\C)N(C)C)c3)nc(=O)c2cc1OC [Example 91, N′-(3-{2-[(6,7-Dimethoxy-4-oxo-1,4-dihydro-quinazolin-2-yl)-methyl-amino]-ethyl}-phenyl)-N,N-dimethyl-acetamidine]",135 to 138.1 °C
13,"CNc1cccc(CN(C)c2nc(=O)c3c(C)c(OC)c(OC)cc3[nH]2)c1 [Example 102, 6,7-Dimethoxy-5-methyl-2-[methyl-(3-methylamino-benzyl)-amino]-1H-quinazolin-4-one]",195.9 to 197.9 °C
14,"COc1cc2[nH]c(N(C)Cc3cccc(N)c3)nc(=O)c2c(OC)c1OC [Example 103, 2-[(3-Amino-benzyl)-methyl-amino]-5,6,7-trimethoxy-1H-quinazolin-4-one]",225 to 226.5 °C
15,"COc1cc2[nH]c(N(C)Cc3cccc(CC#N)c3)nc(=O)c2c(OC)c1OC [Example 107, (3-{[Methyl-(5,6,7-trimethoxy-4-oxo-1,4-dihydro-quinazloin-2-yl)-amino]-methyl}-phenyl)-acetonitrile]",149.5 to 153.3 °C
16,"COc1cc2[nH]c(N(C)Cc3cccc(CN4CCOCC4)c3)nc(=O)c2c(OC)c1OC [Example 110, 5,6,7-Trimethoxy-2-[methyl-(3-morpholin-4-ylmethyl-benzyl)-amino]-1H-quinazolin-4-one]",160 to 162.1 °C
17,"CNCc1cccc(CN(C)c2nc(=O)c3c(OC)c(OC)c(OC)cc3[nH]2)c1 [Example 111, 5,6,7-Trimethoxy-2-[methyl-(3-methylaminomethyl-benzyl)-amino]-1H-quinazolin-4-one]",124.9 to 127.6 °C

# The remaining lines, values ahead:
row,melting point,Compound
1,158.2 to 158.9 °C,"CCNCc1cccc(CN(C)c2nc(=O)c3c(C)c(OC)c(OC)cc3[nH]2)c1 [Example 113, 2-[(3-Ethylaminomethyl-benzyl)-methyl-amino]-6,7-dimethoxy-5-methyl-1H-quinazolin-4-one]"
2,106.5 to 108.9 °C,"CCN(C)Cc1cccc(CN(C)c2nc(=O)c3c(OC)c(OC)c(OC)cc3[nH]2)c1 [Example 114, 2-({3-[(Ethyl-methyl-amino)-methyl]-benzyl}-methyl-amino)-5,6,7-trimethoxy-1H-quinazolin-4-one]"
3,150 to 151.2 °C,"COCC(=O)N(C)Cc1cccc(CN(C)c2nc(=O)c3c(C)c(OC)c(OC)cc3[nH]2)c1 [Example 119, N-(3-{[(6,7-Dimethoxy-5-methyl-4-oxo-1,4-dihydro-quinazolin-2-yl)-methyl-amino]-methyl}-benzyl)-2-methoxy-N-methyl-acetamide]"
4,115 to 117 °C,"COCC(=O)N(C)Cc1cccc(CN(C)c2nc(=O)c3c(OC)c(OC)c(OC)cc3[nH]2)c1 [Example 120, 2-Methoxy-N-methyl-N-(3-{[methyl-(5,6,7-trimethoxy-4-oxo-1,4-dihydro-quinazolin-2-yl)-amino]-methyl}-benzyl)-acetamide]"
5,121.8 to 122.3 °C,"CCN(CCOC)Cc1cccc(CN(C)c2nc(=O)c3c(C)c(OC)c(OC)cc3[nH]2)c1 [Example 121, 2-[(3-{[Ethyl(2-methoxy-ethyl)-amino]-methyl}-benzyl)-methyl-azmino]-6,7-dimethoxy-5-methyl-1H-quinazolin-4-one]"
6,163.9 to 164.5 °C,"COc1cc2[nH]c(N(C)Cc3cccc(CN4CCCC4)c3)nc(=O)c2c(C)c1OC [Example 122, 6,7-Dimethoxy-5-methyl-2-[methyl-(3-pyrrolidin-1-ylmethyl-benzyl)-amino]-1H-quinazolin-4-one]"
7,269.5 to 271.5 °C,"COc1cc2[nH]c(N(C)Cc3cccc(S(C)(=O)=O)c3)nc(=O)c2c(C)c1OC [Example 128, 2-[(3-Methanesulfonyl-benzyl)-methyl-amino]-6,7-dimethoxy-5-methyl-1H-quinazolin-4-one]"
8,231.5 to 232.9 °C,"COc1cc2[nH]c(N(C)Cc3cccc(S(C)(=O)=O)c3)nc(=O)c2c(OC)c1OC [Example 129, 2-[(3-Methanesulfonyl-benzyl)-methyl-amino]-5,6,7-trimethoxy-1H-quinazolin-4-one]"
9,199.9 to 204 °C,COc1cc2[nH]c(N(C)Cc3cccc(S(=O)(=O)N(C)C)c3)nc(=O)c2c(OC)c1OC [Example 130]
10,163 to 164.9 °C,"COCCNS(=O)(=O)c1cccc(CN(C)c2nc(=O)c3c(C)c(OC)c(OC)cc3[nH]2)c1 [Example 131, 3-{[(6,7-Dimethoxy-5-methyl-4-oxo-1,4-dihydro-quinazolin-2-yl)-methyl-amino]-methyl}-N-(2-methoxy-ethyl)-benzenesulfonamide]"
11,176.9 to 179.1 °C,"COCCNS(=O)(=O)c1cccc(CN(C)c2nc(=O)c3c(OC)c(OC)c(OC)cc3[nH]2)c1 [Example 132, N-(2-Methoxy-ethyl)-3-{[methyl-(5,6,7-trimethoxy-4-oxo-1,4-dihydro-quinazolin-2-yl)-amino]-methyl}-benzenesulfonamide]"
12,283.1 to 286.2 °C,"COc1cc2[nH]c(N(C)Cc3cccc(C(=O)O)c3)nc(=O)c2c(C)c1OC [Example 134, 3-{[(6,7-Dimethoxy-5-methyl-4-oxo-1,4-dihydro-quinazolin-2-yl)-methyl-amino]-methyl}-benzoic acid]"
13,243.3 to 245.1 °C,"CNC(=O)c1cccc(CN(C)c2nc(=O)c3c(C)c(OC)c(OC)cc3[nH]2)c1 [Example 136, 3-{[(6,7-Dimethoxy-5-methyl-44-oxo-1,4-dihydro-quinazolin-2-yl)-methyl-amino]-methyl}-N-methyl-benzamide]"
14,217.9 to 219.1 °C,"CNC(=O)c1cccc(CN(C)c2nc(=O)c3c(OC)c(OC)c(OC)cc3[nH]2)c1 [Example 137, N-Methyl-3-{[methyl-(5,6,7-trimethoxy-4-oxo-1,4-dihydro-quinazolin-2-yl)-amino]-methyl}-benzamide]"
15,252.9 to 254.35 °C,"COc1cc2[nH]c(N(C)Cc3cccc(O)c3)nc(=O)c2c(C)c1OC [Example 154, 2-[(3-Hydroxy-benzyl)-methyl-amino]-6,7-dimethoxy-5-methyl-1H-quinazolin-4-one]"
16,212.3 to 215.1 °C,"COc1cc2[nH]c(N(C)Cc3cccc(O)c3)nc(=O)c2c(OC)c1OC [Example 155, 2-[(3-Hydroxy-benzyl)-methyl-amino]-5,6,7-trimethoxy-1H-quinazolin-4-one]"
17,> 300 °C,"COc1cc2[nH]c(N(C)Cc3cccc(OCC(=O)O)c3)nc(=O)c2c(C)c1OC [Example 157, (3-{[(6,7-Dimethoxy-5-methyl-4-oxo-1,4-dihydro-quinazolin-2-yl)-methyl-amino]-methyl}-phenoxy)-acetic acid]"
18,> 300 °C,"COc1cc2[nH]c(N(C)Cc3cccc(OCC(=O)O)c3)nc(=O)c2c(OC)c1OC [Example 158, (3-{[Methyl-(5,6,7-trimethoxy-4-oxo-1,4-dihydro-quinazolin-2-yl)-amino]-methyl}-phenoxy)-acetic acid]"
19,176.6 to 177.9 °C,"COCCOc1cccc(CN(C)c2nc(=O)c3c(C)c(OC)c(OC)cc3[nH]2)c1 [Example 160, 6,7-Dimethoxy-2-{[3-(2-methoxy-ethoxy)-benzyl]-methyl-amino}-5-methyl-1H-quinazolin-4-one]"
